Measured values from patent US9723840B2 (SYNGENTA PARTICIPATIONS AG, priority 2013, dated 2017).

Legend:
Type in all cases: in vivo
[1] = test system: Setaria faberi; test: Post-emergence herbicidal activity, SETFA; parameters: key: 5=total damage to plant; 0=no damage to plant; details: 1000 g/Ha, post-emergence spray (8 days cultivation), evaluated after 13 days, scale 0-5
Experimental: (§1) Seeds of a variety of test species were sown in standard soil in pots. After 8 days cultivation (post-emergence) under controlled conditions in a glasshouse (at 24/16° C., day/night; 14 hours light; 65% humidity), the plants were sprayed with an aqueous spray solution derived from the formulation of the technical active ingredient in acetone/water (50:50) solution containing 0.5% Tween 20 (polyoxyethelyene sorbitan monolaurate, CAS RN 9005-64-5). The test plants were then grown in a glasshouse under controlled conditions (at 24/16° C., day/night; 14 hours light; 65% humidity) and watered twice daily. After 13 days, the test was evaluated (5=total damage to plant; 0=no damage to plant).

[2] = test system: Abutilon theophrasti; test: Post-emergence herbicidal activity, ABUTH; parameters: key: 5=total damage to plant; 0=no damage to plant; details: 1000 g/Ha, post-emergence spray (8 days cultivation), evaluated after 13 days, scale 0-5
Experimental: as §1

[3] = test system: Echinochloa crus-galli; test: Pre-emergence herbicidal activity, ECHCG; parameters: key: 5=total damage to plant; 0=no damage to plant; details: 1000 g/Ha, pre-emergence spray, evaluated after 13 days, scale 0-5
Experimental: as §1, with “After” for “After 8 days”, “for one day (pre-emergence)” for “(post-emergence)”

[4] = test system: Amaranthus retroflexus; test: Post-emergence herbicidal activity, AMARE; parameters: key: 5=total damage to plant; 0=no damage to plant; details: 1000 g/Ha, post-emergence spray (8 days cultivation), evaluated after 13 days, scale 0-5
Experimental: as §1

[5] = test system: Abutilon theophrasti; test: Pre-emergence herbicidal activity, ABUTH; parameters: key: 5=total damage to plant; 0=no damage to plant; details: 1000 g/Ha, pre-emergence spray, evaluated after 13 days, scale 0-5
Experimental: as §1, with “After” for “After 8 days”, “for one day (pre-emergence)” for “(post-emergence)”

[6] = test system: Alopecurus myosuroides; test: Pre-emergence herbicidal activity, ALOMY; details: 1000 g/Ha, pre-emergence spray, evaluated after 13 days, scale 0-5
Experimental: as §1, with “After” for “After 8 days”, “for one day (pre-emergence)” for “(post-emergence)”

[7] = test system: Alopecurus myosuroides; test: Post-emergence herbicidal activity, ALOMY; parameters: key: 5=total damage to plant; 0=no damage to plant; details: 1000 g/Ha, post-emergence spray (8 days cultivation), evaluated after 13 days, scale 0-5
Experimental: as §1

[8] = test system: Amaranthus retroflexus; test: Pre-emergence herbicidal activity, AMARE; parameters: key: 5=total damage to plant; 0=no damage to plant; details: 1000 g/Ha, pre-emergence spray, evaluated after 13 days, scale 0-5
Experimental: as §1, with “After” for “After 8 days”, “for one day (pre-emergence)” for “(post-emergence)”

[9] = test system: Zea mays; test: Pre-emergence herbicidal activity, ZEAMX; details: 1000 g/Ha, pre-emergence spray, evaluated after 13 days, scale 0-5
Experimental: as §1, with “After” for “After 8 days”, “for one day (pre-emergence)” for “(post-emergence)”

[10] = test system: Echinochloa crus-galli; test: Post-emergence herbicidal activity, ECHCG; parameters: key: 5=total damage to plant; 0=no damage to plant; details: 1000 g/Ha, post-emergence spray (8 days cultivation), evaluated after 13 days, scale 0-5
Experimental: as §1

[11] = test system: Setaria faberi; test: Pre-emergence herbicidal activity, SETFA; details: 1000 g/Ha, pre-emergence spray, evaluated after 13 days, scale 0-5
Experimental: as §1, with “After” for “After 8 days”, “for one day (pre-emergence)” for “(post-emergence)”

[12] = test system: Zea mays; test: Post-emergence herbicidal activity, ZEAMX; parameters: key: 5=total damage to plant; 0=no damage to plant; details: 1000 g/Ha, post-emergence spray (8 days cultivation), evaluated after 13 days, scale 0-5
Experimental: as §1

| SMILES | SETFA damage score, application post-emergence [1] | ABUTH damage score, application post-emergence [2] | ECHCG damage score, application pre-emergence [3] | AMARE damage score, application post-emergence [4] | ABUTH damage score, application pre-emergence [5] | ALOMY damage score, application pre-emergence [6] | ALOMY damage score, application post-emergence [7] | AMARE damage score, application pre-emergence [8] | ZEAMX damage score, application pre-emergence [9] | ECHCG damage score, application post-emergence [10] | SETFA damage score, application pre-emergence [11] | ZEAMX damage score, application post-emergence [12] |
| --- | --- | --- | --- | --- | --- | --- | --- | --- | --- | --- | --- | --- |
| CC1C(O)N(c2ccc(C(=O)NC(C)(C)C#N)nn2)C(=O)N1C (stereo not drawn) [Example A13] | 5 | 5 | 4 | 5 | 5 | 4 | 4 | 5 | 3 | 3 | 4 | 1 |
| CON1C(=O)N(c2ccc(C(=O)NC(C)(C)C)nn2)C(O)C1C (stereo not drawn) [Example A14] | 5 | 5 | 4 | 5 | 5 | 4 | 5 | 5 | 2 | 5 | 4 | 5 |
| CC1C(O)N(c2ccc(C(=O)NC(C)(C)C)nn2)C(=O)N1C (stereo not drawn) [Example A15] | 5 | 5 | 5 | 5 | 5 | 4 | 5 | 5 | 3 | 5 | 4 | 5 |
